Results from US10925858B2, “S-nitrosoglutathione (GSNO) and GSNO reductase inhibitors for use in therapy” (MUSC FOUNDATION FOR RESEARCH DEVELOPMENT, priority 2017, dated 2021).

What was measured:
[1] = tested on: tight junction proteins (ZO-1, Occludin, Claudin-5); experiment: Immunofluorescence of tight junction proteins in isolated microvessels of diabetic mice; assay type: in vivo
Experimental: Male laca mice weighing between 28-32 g were procured from the Central Animal House, Panjab University, Chandigarh. The animals were acclimatized and were fed with standard pellet diet and water ad libitum. The experimental protocols were approved by the Institutional Ethics Committee and were conducted according to Indian National Science Academy (INSA) guidelines for the use and care of experimental animals. The animals were divided into four groups: (i) Control animals received phosphate buffered saline (PBS) throughout the study; (ii) Control+GSNO animals were administered with GSNO 100 μg/kg body weight orally, dissolved in PBS after every 24 h for 8 weeks; (iii) Diabetic animals were injected with STZ at a dose of 40 mg/kg body weight intraperitoneally for 5 days dissolved in 0.1 mol/L citrate buffer, pH 4.5 and Diabetic+GSNO mice were administered GSNO 100 μg/kg body weight orally dissolved in PBS after every 24 h for 8 weeks after the induction of diabetes. Animals were assessed weekly for development of diabetic encephalopathy in terms of memory deficits. All experimental procedures were done on mice at the end of study.
The microvessels were isolated by the method described by Brooks et al., (2005). Brain tissue was homogenized in microisolation buffer (103 mM NaCl, 4.7 mM KCl, 2.5 mM CaCb, 1.2 mM KH2PO4, 1.2 mM MgSO4, 15 mM HEPES, 2.5 mM NaHCO3, 10 mM D-glucose, 1 mM sodium pyruvate and 10 g/L dextran (64,000 mol wt), pH 7.4) and equal amount of 26% (w/v) dextran was added. The sample was then centrifuged at 5600 g for 10 min and pellets obtained were resuspended in microisolation buffer. Then the suspension was filtered through 70 μm filter (BD Biosciences, Gurgaon, India). […]
Isolated microvessels were resuspended in PBS and allowed to attach to polylysine-coated slides for 30 min at 37° C. and fixed at 95° C. for 10 min. […] After placement and sealing of coverslips, photographs were taken with 40× objective on a Nikon TE-300 fluorescence microscope with a fluorescein filter (Schulze & Firth 1993).

[2] = tested on: IFN-γ, IL-4, IL-17, IL-10; experiment: ELISA of CD4+ T cell subset specific cytokines from spleen derived cells of EAE mice after MOG restimulation; assay type: in vivo, C57BL/6 mice; conditions: N6022, MOG restimulation
Experimental: Female C57BL/6 mice of 8-12 weeks of age, purchased from Jackson Laboratory, were provided with food and water ad libitum and were kept in pathogen free animal care facility of Medical University of South Carolina (MUSC) throughout the study. All procedures were conducted in accordance with accepted standards of humane care as approved by the Institutional Animal Care and Use Committee (Approved number: AR #1644). EAE was induced as described previously (Nath et al., 2009). Briefly, mice were immunized subcutaneously in the flank regions with MOG35-55 peptide (MOG; 200 μg; Peptide International) emulsified (1:1) in 100 ul complete Freund's adjuvant (CFA) on day 0 and day 7. Additionally, 300 ng of Pertussis toxin (Sigma-Aldrich, St. Louis, Mo.) was given on day 0 and day 2 by i.p. injection. Pertussis toxin used as per the standardized protocol reported by us and other investigators for the induction of EAE (Nath et al., 2009). Similarly, healthy control group received subcutaneous injection of PBS and CFA emulsion on day 0 and day 7. Clinical signs of EAE were scored by examiners blinded to experimental treatments using the following scale: 0=no clinical signs of disease; 1=piloerection and sluggish; 2=limp tail (ataxia); 2.5=ataxia with partial hind limb paralysis; 3=full paralysis of hind limb; 3.5=full paralysis of hind limb with paralysis of one fore limb; 4=full paralysis of two limbs; 4.5=moribund stage; 5=death. […] The drug treatments were continued till the termination of the study (day 41 post immunization). EAE animals without drug treatment received PBS. Likewise, healthy controls received vehicle.
Fluorescence flow cytometry analysis for each subset of CD4+ T cells (TH1, TH2, TH17, CD4+CD25+ FOXP3+ Treg, and CD4+CD25+ FOXP3− Treg) were performed based on our previous report with modification (Nath et al., 2004). Briefly, control mice, EAE mice. EAE mice treated with GSNO. […] Following the preparation of single cell suspension, red blood cells were lysed with Pharma lyse buffer (BD Pharmingen™) and the remaining spleen cells were washed with RPMI 1640. The isolated CD4+ T cells were then resuspended with complete RPMI-media in 12-well plates (5×10^6 cells' 2 ml per well) containing MOG peptide (25 μg/ml) for 48 hrs. […] The cell pellets were washed with cell staining solution (ebioscience, Waltham, Mass. USA) and stained with fluorescence labeled antibody specific to IFN-γ for TH1. […] The cells were counted and analyzed using Beackman Coulter instrument (Beckman Coulter, Inc., Brea, Calif., USA).
ELISA assay was performed for analysis of CD4+ T cell subset specific cytokines released from cultured cells or spinal cord tissues. […] The equal amounts of proteins were analyzed for ELISA for IFN-γ. […]

[3] = microvessels of GSNO supplemented diabetic animals vs untreated diabetic group

N[C@@H](CCC(=O)N[C@@H](CSN=O)C(=O)NCC(=O)O)C(=O)O [GSNO, S-nitrosoglutathione]
claudin-5 fluorescent intensity ([1]; GSNO treated diabetic animals): No change | fluorescent intensity for ZO-1 [1, 3]: increased fluorescent intensity | fluorescent intensity for occludin [1, 3]: increased fluorescent intensity

Cc1cc(C(N)=O)ccc1-n1c(CCC(=O)O)ccc1-c1ccc(-n2ccnc2)cc1 [N6022, reference compound]
IL-10 production from spleen derived cells [2]: enhanced | production of IFN-γ from spleen derived cells [2]: decreased | production of IL-17 from spleen derived cells [2]: decreased | IL-4 production from spleen derived cells ([2]; to the control levels): fully restored
